Data set [1] is described as follows: Metabolic stability assay, rat microsomes (values in parentheses). The following applies: value in parentheses; for half-life at 10 µM: read-out: Metabolic Stability T½ [min] (rat). In kind it is in vitro ADME.
The nature of data set [2]: Metabolic stability assay, human microsomes. The following applies: human, microsomes; for half-life at 10 µM: both sexes; for Metabolic Stability 60 min hum [% remain.] / Metabolic Stability T½ [min] hum: both, 10 µM; for Metabolic Stability 60 min hum [% remain.]: 1 h. In kind it is in vitro ADME.
A short description of data set [3]: Metabolic stability assay, CD-1 mouse microsomes. As to conditions: CD-1, mouse, microsomes; for Metabolic Stability T½ [min] mouse / Metabolic Stability 60 min mouse [% remain.]: both, 10 µM; for Metabolic Stability 60 min mouse [% remain.]: 1 h. The data set is classed as in vitro ADME.
The nature of data set [4]: Pharmacokinetic study after single i.v. and p.o. administration in male SD rats. In kind it is in vivo. The following applies: rat; for Cmax / Tmax / C0 / half-life / bioavailability: male, SD, plasma; for C0: extrapolated to tzero; for half-life: read-out: T1/2 (terminal) (converted). As to the method:
5. Pharmacokinetic Study (PK) Analysis
Pharmacokinetic analyses after single intravenous (i.v.) and two different peroral (p.o.) administrations were performed for the test compounds. 240 grams (±10 gram) male SD rats were catheterized and used in the study. The vehicle, Solutol HS-15/0.9% saline (5:95), was added to give a final concentration of 0.33 mg/ml of the compounds for i.v. application, and 0.5 or 2.0 mg/ml for p.o. applications. The volumes used for applications were 3 ml/kg i.v. and 10 ml/kg p.o. resulting in a final dose of 1 mg/kg for the intravenous dose and 5 or 20 mg/kg for the peroral doses.
Blood samples were withdrawn via the catheter at 1) predose, 5, 15, 30, 60, 120, 240, and 480 minutes for the i.v. application and 2) predose, 15, 30, 60, 120, 240, 480 and 720 minutes for the p.o. applications. Plasma was prepared by centrifugation of heparinized whole blood. Plasma samples (˜120 μl each time point, Li-Heparin, 20 IE/ml) were stored at −80° C. until HPLC-MSMS analysis.
Preparation of the Plasma Calibration Samples:
“Blank” rat plasma from untreated animals was used. Aliquots of plasma of 50 μL each were spiked with Internal Standard (ISTD) and with known amounts test compounds in order to obtain 11 plasma calibration samples in the range 0.25-4000 ng/mL.
Preparation of Plasma Samples:
To 50 μL of sample from treated animals 20 μL of internal standard were added. After mixing with 200 μL of acetonitrile, 2% HCOOH were added and each sample was vortexed for several seconds. Precipitated material was removed by centrifugation for 10 min (13200 rpm), the supernatant removed and dried under a constant flow of N2 (Porvair, MiniVap). To reconstitute the dried samples, 200 μL of [DMSO/acetonitrile/H2O, 4/4/2 (v/v/v)+2% HCOOH] were added and the sample was shaken for at least 5 minutes.
LC-MSMS Analysis of Samples:
Reconstituted samples were analysed by HPLC/MSMS on a reverse phase analytical column (BEH C18, 100×2.1 mm, 1.7 μm, Waters). Mobile phase A: H2O/acetonitrile (95:5, v:v) 0.1% formic acid, mobile phase B: Acetonitrile/H2O (95:5, v:v) 0.1% formic acid. Compounds were eluted from the column by using a gradient from 1% B to 60% B in 2.5 min.).
Pharmacokinetic Evaluation:
PK analysis was performed on mean values (generally n=3) using WinNonLin software (Version 5.3, Pharsight Corporation). The area under the curve AUC was calculated by the linear trapezoidal rule (linear interpolation, uniform weighting). AUC(t-∞) was estimated as Ct/b (b: elimination rate constant). […] the sum of AUC(0-t) and AUC(t-∞). Elimination half-life was calculated by the linear regression on at least three data points during the elimination phase. The time intervals selected for the half-life determinations were evaluated by the correlation coefficient (r^2), which should be at least above 0.85 and ideally above 0.96.
In case of i.v. administration the initial concentration at tzero was determined by extrapolation of the curve through the first two time points. Finally bioavailability after p.o. administration was calculated from the dose normalized AUC(0-∞) ration after p.o. versus i.v. administration.

Data set [5] in a line: in vitro. In kind it is in vitro ADME, human. As to conditions: human, plasma, 10 µM; for Plasma Stability 240 min hum [% remain.]: 4 h.
Data set [6] can be described thus: in vitro. The following applies: both, CD-1, mouse, plasma, 10 µM; for Plasma Stability 240 min mouse [% remain.]: 4 h. In kind it is in vitro ADME, mouse.
Description: Example compounds were dissolved in DMSO/H2O 90:10 to a final concentration of 10 mM for plasma stability determination and metabolic stability determination.
Human plasma (3-5 donors, Blutspendedienst SRK, Basel) and CD-1 mouse plasma (mixed gender pool >50 animals, Innovative Research, CA, USA) are both sodium citrate stabilized. The assay is performed in triplicates at 10 μM compound concentration and 37° C. Samples are taken at 0, 15, 60, and 240 minutes and stopped by precipitation with 2 volumes of acetonitrile. The supernatant is collected, evaporated and reconstituted in a 5% acetonitrile solution to be analyzed by HPLC/MS/MS. The resulting peak area counts are expressed in percent of the 0 value and used to determine the endpoint stability in % and the half life in minutes. In order to monitor assay integrity the degradation of propantheline is assayed with every experimental set.

Each structure is given as a SMILES string. Where two headings read alike, the source gives them in different places. Bounds are passed on as bounds.
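Wherever Plasma Stability 240 min mouse [% remain.] is given: sodium citrate stabilized mouse plasma, parent compound quantified by HPLC/MS/MS relative to its peak area at time zero, run in triplicate.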
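Wherever Plasma Stability T½ [min] mouse is given: sodium citrate stabilized mouse plasma, parent compound quantified by HPLC/MS/MS relative to its peak area at time zero, run in triplicate.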

As a reminder, the Cmax is the maximum level reached in the sampled fluid or tissue. Broadly, the Tmax is the time at which the peak concentration occurs. Usually bioavailability stands for the share of a dose that reaches the circulation, judged against a reference dose that is usually intravenous. A high value points to much systemic uptake. Regarding `CN1CCC[C@H](N)C(=O)N2C[C@@H](Oc3ccccc3)C[C@H]2COc2cccc(c2)C1=O` [Ex. 561, (4S,6S,10S)-10-amino-14-methyl-6-phenoxy-2-oxa-8,14-diazatricyclo[14.3.1.0^4,8]icosa-1(20),16,18-triene-9,15-dione], in data set [1], the “Metabolic Stability 60 min (rat) [% remain.]” value is given as 53 % remain and the half-life at 10 µM was 56 min. Further, in data set [2], the half-life at 10 µM was 0.65 h and the “Metabolic Stability 60 min hum [% remain.]” value stood at 42 % remain. In data set [3], the Metabolic Stability T½ [min] mouse was above 60 min and the “Metabolic Stability 60 min mouse [% remain.]” value is listed as 79 % remain. Further, in data set [4] (iv, 1 mg/kg), the peak level (Cmax) was 184 ng/mL, the Tmax came out at 0.08 h, the C0 was 240 ng/mL and the half-life was 2.11 h. Moreover, in data set [4] (iv, 1 mg/kg), the “AUC(t-∞) dose normalized” value amounted to 219.89 kg·ng·h/mL/mg, the Cmax dose normalized was 183.67 kg·ng/mL/mg and the “V (terminal)” value amounted to 13.8314 L/kg. For the same compound, in data set [4] (po, 5 mg/kg), the Cmax stood at 67 ng/mL, the Tmax stood at 0.5 h, the bioavailability came out at 10.9% and the half-life was 3 h. In addition, in data set [4] (po, 5 mg/kg), the “AUC(t-∞) dose normalized” value is 24.00 kg·ng·h/mL/mg and the Cmax dose normalized was 13.40 kg·ng/mL/mg. In data set [4] (po, 20 mg/kg), the peak level (Cmax) was 248 ng/mL, the Tmax was determined as 0.25 h, the bioavailability was 16.8% and the half-life is 2.71 h. In data set [4] (po, 20 mg/kg), the “AUC(t-∞) dose normalized” value turned out to be 36.88 kg·ng·h/mL/mg and the Cmax dose normalized is 12.40 kg·ng/mL/mg. In “in vitro [5]”, the Plasma Stability T½ [min] hum is above 240 min and the “Plasma Stability 240 min hum [% remain.]” value is recorded as 99 % remain. In the data set “in vitro [6]”, the Plasma Stability T½ [min] mouse was above 240 min and the “Plasma Stability 240 min mouse [% remain.]” value was determined as 100 % remain.
As for `CN1CCC[C@H](NCC(C)(C)C)C(=O)N2C[C@@H](Oc3ccccc3)C[C@H]2COc2cccc(c2)C1=O` [Ex. 563, (4S,6S,10S)-14-methyl-10-(neopentylamino)-6-phenoxy-2-oxa-8,14-diazatricyclo[14.3.1.0^4,8]icosa-1(20),16,18-triene-9,15-dione], in data set [1], the “Metabolic Stability 60 min (rat) [% remain.]” value is listed as 32 % remain and the half-life at 10 µM came out at 31 min. In data set [2], the half-life at 10 µM stood at 0.133 h and the “Metabolic Stability 60 min hum [% remain.]” value was found to be 1 % remain. In data set [3] (both sexes), this compound came in with a half-life at 10 µM of 0.2 h. The “Metabolic Stability 60 min mouse [% remain.]” value in data set [3] stood at 4 % remain. Besides, in the data set “in vitro [5]”, the Plasma Stability T½ [min] hum is above 240 min and the “Plasma Stability 240 min hum [% remain.]” value came to 88 % remain. In “in vitro [6]”, the Plasma Stability T½ [min] mouse was above 240 min and the “Plasma Stability 240 min mouse [% remain.]” value amounted to 81 % remain.
In the case of `CN1CCC[C@H](N)C(=O)N2C[C@@H](OCc3ccccc3)C[C@H]2COc2cccc(c2)C1=O` [Ex. 568, (4S,6S,10S)-10-amino-6-(benzyloxy)-14-methyl-2-oxa-8,14-diazatricyclo[14.3.1.0^4,8]icosa-1(20),16,18-triene-9,15-dione], in data set [1], the “Metabolic Stability 60 min (rat) [% remain.]” value worked out at 57 % remain and the “Metabolic Stability T½ [min] (rat)” value is 60 (60) min. Also, in data set [2], the Metabolic Stability T½ [min] hum was above 60 min and the “Metabolic Stability 60 min hum [% remain.]” value came out at 53 % remain. Besides, in data set [3], the Metabolic Stability T½ [min] mouse was above 60 min and the “Metabolic Stability 60 min mouse [% remain.]” value came to 60 % remain. For the same compound, in data set [4] (iv, 1 mg/kg), the concentration peaked (Cmax) at 195 ng/mL, the Tmax was 0.08 h, the C0 was 285 ng/mL and the half-life was 1.67 h. Also, in data set [4] (iv, 1 mg/kg), the “AUC(t-∞) dose normalized” value is 167.93 kg·ng·h/mL/mg, the Cmax dose normalized was found to be 194.67 kg·ng/mL/mg and the “V (terminal)” value stood at 14.32056 L/kg. Moreover, in data set [4] (po, 5 mg/kg), the highest level (Cmax) was 64.3 ng/mL, the Tmax turned out to be 0.25 h, the bioavailability was found to be 17.8% and the half-life is 1.92 h. In addition, in data set [4] (po, 5 mg/kg), the “AUC(t-∞) dose normalized” value amounted to 29.83 kg·ng·h/mL/mg and the Cmax dose normalized was determined as 12.87 kg·ng/mL/mg. Also, in data set [4] (po, 20 mg/kg), the Cmax is 380 ng/mL, the Tmax stood at 0.25 h, the bioavailability worked out at 21.6% and the half-life is 2.07 h. Also, in data set [4] (po, 20 mg/kg), the “AUC(t-∞) dose normalized” value worked out at 36.22 kg·ng·h/mL/mg and the Cmax dose normalized stood at 18.98 kg·ng/mL/mg. In addition, in the data set “in vitro [5]”, the Plasma Stability T½ [min] hum is above 240 min and the “Plasma Stability 240 min hum [% remain.]” value turned out to be 97 % remain. Moreover, in the data set “in vitro [6]”, the Plasma Stability T½ [min] mouse was above 240 min and the “Plasma Stability 240 min mouse [% remain.]” value was 89 % remain.
Regarding `CN1CCC[C@H](NC(=O)Cc2ccccc2)C(=O)N[C@H]2CN[C@H](COc3ccc(F)cc3C1=O)C2` [Ex. 406, N-[(1S,15S,18R)-7-fluoro-11-methyl-10,16-dioxo-3-oxa-11,17,20-triazatricyclo[16.2.1.0^4,9]henicosa-4,6,8-trien-15-yl]-2-phenylacetamide], in data set [1], the “Metabolic Stability 60 min (rat) [% remain.]” value amounted to 96 % remain and the “Metabolic Stability T½ [min] (rat)” value is reported as 60 (60) min. Also, in data set [2], the Metabolic Stability T½ [min] hum is above 60 min and the “Metabolic Stability 60 min hum [% remain.]” value was found to be 77 % remain. Further, in data set [3], the Metabolic Stability T½ [min] mouse was above 60 min and the “Metabolic Stability 60 min mouse [% remain.]” value came out at 94 % remain. In addition, in the data set “in vitro [5]”, the Plasma Stability T½ [min] hum is above 240 min and the “Plasma Stability 240 min hum [% remain.]” value worked out at 75 % remain. Moreover, in the data set “in vitro [6]”, the Plasma Stability T½ [min] mouse is above 240 min and the “Plasma Stability 240 min mouse [% remain.]” value is 89 % remain.
In the case of `CO[C@H]1C[C@H]2COc3cccc(c3)C(=O)N(C)CCC[C@H](NC(=O)CC(C)(C)C)C(=O)N2C1` [Ex. 572, N-[(4S,6S,10S)-6-methoxy-14-methyl-9,15-dioxo-2-oxa-8,14-diazatricyclo[14.3.1.0^4,8]icosa-1(20),16,18-trien-10-yl]-3,3-dimethylbutanamide], in data set [1], the “Metabolic Stability 60 min (rat) [% remain.]” value was determined as 92 % remain and the “Metabolic Stability T½ [min] (rat)” value is 60 (60) min. For the same compound, in data set [2], the half-life at 10 µM was determined as 0.9 h and the “Metabolic Stability 60 min hum [% remain.]” value is 49 % remain. For the same compound, in data set [3], the Metabolic Stability T½ [min] mouse is above 60 min and the “Metabolic Stability 60 min mouse [% remain.]” value is on record as 54 % remain. In the data set “in vitro [5]”, the Plasma Stability T½ [min] hum is above 240 min and the “Plasma Stability 240 min hum [% remain.]” value is given as 85 % remain. In the data set “in vitro [6]”, the Plasma Stability T½ [min] mouse was above 240 min and the “Plasma Stability 240 min mouse [% remain.]” value came to 100 % remain.

The record behind these values is US9512139B2, “Conformationally constrained, fully synthetic macrocyclic compounds” (POLYPHOR AG, priority 2009, dated 2016).
